Measured values: patent US6914045B2, “Glycopeptide antibiotics” (Wyeth Holdings Corporation, priority 2001, dated 2005)
Converted amounts (≈) assume the structure as drawn.

Legend:
Assay in all cases: in vitro antibacterial evaluation, MIC by broth dilution
Type in all cases: cell-based
Enterococcus sp. = conditions: broth dilution, 18 hours at 35° C.; for MIC Enterococcus faecalis (ATCC 29212): strain ATCC 29212; for MIC Enterococcus faecium (GC 2243): strain GC 2243; for MIC Enterococcus faecalis (GC 4552): strain GC 4552; for MIC Enterococcus faecalis (GC 4553): strain GC 4553; for MIC Enterococcus faecalis (GC 4554): strain GC 4554; for MIC Enterococcus faecium (GC 4556): strain GC 4556; for MIC Enterococcus faecium (GC 4557): strain GC 4557; for MIC Enterococcus avium (GC 4558): strain GC 4558; for MIC Enterococcus faecalis (GC 6189): strain GC 6189
In short: (§1)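 Broth dilution per NCCLS standard M7-A2 in Muller-Hinton II […], with an inoculum of 5×10^5 CFU/mL and antibiotic spanning 64-0.06 μg/mL. The MIC is the lowest concentration that inhibits growth of the organism.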

Escherichia coli = test system: Escherichia coli
In short: as §1

Staphylococcus sp. = conditions: broth dilution, 18 hours at 35° C.; for MIC Staphylococcus aureus (GC 1131): strain GC 1131
In short: as §1

Streptococcus sp. = conditions: broth dilution, 18 hours at 35° C.
In short: as §1

With `CC(=O)n1cc(C2OCC3OC(OC4C(CO)OC(Oc5ccc(CC6NC(=O)C(C(C)c7ccccc7)NC(=O)CNC(=O)C(CO)NC(=O)C(C(O)C7CNC(=N)N7C7OC(CO)C(O)C(O)C7O)NC(=O)C(C(O)C7CNC(=N)N7)NC6=O)cc5)C(O)C4O)C(O)C(O)C3O2)c2ccccc21` (stereo not drawn) [Example 161] the “MIC Enterococcus faecalis (GC 2242)” value (Enterococcus sp.; Enterococcus faecalis (GC 2242)) was 16 µg/mL (≈ 10.9 µM), the “MIC Enterococcus faecalis (GC 2691)” value (Enterococcus sp.; Enterococcus faecalis (GC 2691)) was 16 µg/mL (≈ 10.9 µM) and the “MIC Enterococcus faecalis (GC 3059)” value (Enterococcus sp.; Enterococcus faecalis (GC 3059)) was 16 µg/mL (≈ 10.9 µM). The “MIC Enterococcus faecalis (ATCC 29212)” value (Enterococcus sp.; inoculum 5×10^5 CFU/mL) was 16 µg/mL (≈ 10.9 µM), the “MIC Enterococcus faecium (GC 2243)” value (Enterococcus sp.; inoculum 5×10^5 CFU/mL) was 16 µg/mL (≈ 10.9 µM) and the “MIC Enterococcus faecalis (GC 4552)” value (Enterococcus sp.; inoculum 5×10^5 CFU/mL) was 16 µg/mL (≈ 10.9 µM). For the same molecule, the “MIC Enterococcus faecalis (GC 4553)” value (Enterococcus sp.; inoculum 5×10^5 CFU/mL) was 16 µg/mL (≈ 10.9 µM), the “MIC Enterococcus faecalis (GC 4554)” value (Enterococcus sp.; inoculum 5×10^5 CFU/mL) was 16 µg/mL (≈ 10.9 µM) and the “MIC Enterococcus faecium (GC 4556)” value (Enterococcus sp.; inoculum 5×10^5 CFU/mL) was 16 µg/mL (≈ 10.9 µM). For the same molecule, the “MIC Enterococcus faecium (GC 4557)” value (Enterococcus sp.; inoculum 5×10^5 CFU/mL) was 8 µg/mL (≈ 5.46 µM), the “MIC Enterococcus avium (GC 4558)” value (Enterococcus sp.; inoculum 5×10^5 CFU/mL) was 16 µg/mL (≈ 10.9 µM) and the “MIC Enterococcus faecalis (GC 6189)” value (Enterococcus sp.; inoculum 5×10^5 CFU/mL) was 16 µg/mL (≈ 10.9 µM). For the same molecule, the “MIC Enterococcus faecalis (ATCC 29212)” value (Enterococcus sp.) was 16 µg/mL (≈ 10.9 µM), the “MIC Enterococcus faecalis (GC 2242)” value (Enterococcus sp.; strain GC 2242) was 16 µg/mL (≈ 10.9 µM) and the “MIC Enterococcus faecium (GC 2243)” value (Enterococcus sp.) was 16 µg/mL (≈ 10.9 µM). The “MIC Enterococcus faecalis (GC 2691)” value (Enterococcus sp.; strain GC 2691) was 16 µg/mL (≈ 10.9 µM), the “MIC Enterococcus faecalis (GC 3059)” value (Enterococcus sp.; strain GC 3059) was 16 µg/mL (≈ 10.9 µM) and the “MIC Enterococcus faecalis (GC 4552)” value (Enterococcus sp.) was 16 µg/mL (≈ 10.9 µM). The “MIC Enterococcus faecalis (GC 4553)” value (Enterococcus sp.) was 16 µg/mL (≈ 10.9 µM), the “MIC Enterococcus faecalis (GC 4554)” value (Enterococcus sp.) was 16 µg/mL (≈ 10.9 µM) and the “MIC Enterococcus faecium (GC 4556)” value (Enterococcus sp.) was 16 µg/mL (≈ 10.9 µM). The “MIC Enterococcus faecium (GC 4557)” value (Enterococcus sp.) was 8 µg/mL (≈ 5.46 µM), the “MIC Enterococcus avium (GC 4558)” value (Enterococcus sp.) was 16 µg/mL (≈ 10.9 µM) and the “MIC Enterococcus faecalis (GC 6189)” value (Enterococcus sp.) was 16 µg/mL (≈ 10.9 µM). For the same molecule, the “MIC Escherichia coli (ATCC 25922)” value (Escherichia coli; strain ATCC 25922, 18 hours at 35° C.) was >64 µg/mL, the “MIC Escherichia coli (GC 4559)” value (Escherichia coli; strain GC 4559, 18 hours at 35° C.) was >64 µg/mL and the “MIC Escherichia coli (GC 4560)” value (Escherichia coli; strain GC 4560, 18 hours at 35° C.) was 2 µg/mL (≈ 1.37 µM). For the same molecule, the “MIC Staphylococcus aureus (GC 1131)” value (Staphylococcus sp.; inoculum 5×10^5 CFU/mL) was 8 µg/mL (≈ 5.46 µM), the “MIC Staphylococcus aureus (ATCC 29213)” value (Staphylococcus sp.; strain ATCC 29213) was 4 µg/mL (≈ 2.73 µM) and the “MIC Staphylococcus aureus (GC 1131)” value (Staphylococcus sp.) was 8 µg/mL (≈ 5.46 µM). The “MIC Staphylococcus aureus (GC 3051)” value (Staphylococcus sp.; strain GC 3051) was 8 µg/mL (≈ 5.46 µM), the “MIC Staphylococcus aureus (GC 3053)” value (Staphylococcus sp.; strain GC 3053) was 8 µg/mL (≈ 5.46 µM) and the “MIC Staphylococcus aureus (GC 4541)” value (Staphylococcus sp.; strain GC 4541) was 4 µg/mL (≈ 2.73 µM). The “MIC Staphylococcus aureus (GC 4542)” value (Staphylococcus sp.; strain GC 4542) was 4 µg/mL (≈ 2.73 µM), the “MIC Staphylococcus aureus-SMITH (GC 4543)” value (Staphylococcus sp.; strain GC 4543) was 4 µg/mL (≈ 2.73 µM) and the “MIC Staphylococcus aureus (GC 4544)” value (Staphylococcus sp.; strain GC 4544) was 8 µg/mL (≈ 5.46 µM). The “MIC Staphylococcus aureus (GC 4545)” value (Staphylococcus sp.; strain GC 4545) was 4 µg/mL (≈ 2.73 µM), the “MIC Staphylococcus haemolyticus (GC 4546)” value (Staphylococcus sp.; strain GC 4546) was 4 µg/mL (≈ 2.73 µM) and the “MIC Coagulase Negative Staphylococcus (GC 4547)” value (Staphylococcus sp.; strain GC 4547) was 4 µg/mL (≈ 2.73 µM). For the same molecule, the “MIC Coagulase Negative Staphylococcus (GC 4548)” value (Staphylococcus sp.; strain GC 4548) was 2 µg/mL (≈ 1.37 µM), the “MIC Coagulase Negative Staphylococcus (GC 4549)” value (Staphylococcus sp.; strain GC 4549) was 2 µg/mL (≈ 1.37 µM) and the “MIC Coagulase Negative Staphylococcus (GC 4551)” value (Staphylococcus sp.; strain GC 4551) was 8 µg/mL (≈ 5.46 µM). For the same molecule, the “MIC Coagulase Negative Staphylococcus (GC 6257)” value (Staphylococcus sp.; strain GC 6257) was 2 µg/mL (≈ 1.37 µM), the “MIC Staphylococcus aureus-SMITH (GC 4543)” value (Staphylococcus sp.; strain SMITH GC 4543) was 4 µg/mL (≈ 2.73 µM) and the “MIC Streptococcus agalactiae (GC 4564)” value (Streptococcus sp.; Streptococcus agalactiae (GC 4564)) was 1 µg/mL (≈ 0.683 µM). For the same molecule, the “MIC Streptococcus pneumoniae (ATCC 6301)” value (Streptococcus sp.; Streptococcus pneumoniae (ATCC 6301)) was 0.5 µg/mL (≈ 0.341 µM), the “MIC Streptococcus pneumoniae (GC 1894)” value (Streptococcus sp.; Streptococcus pneumoniae (GC 1894)) was 0.12 µg/mL (≈ 0.0819 µM) and the “MIC Streptococcus pneumoniae (GC 4565)” value (Streptococcus sp.; Streptococcus pneumoniae (GC 4565)) was 0.5 µg/mL (≈ 0.341 µM). For the same molecule, the “MIC Streptococcus pyogenes (GC 4563)” value (Streptococcus sp.; Streptococcus pyogenes (GC 4563)) was 1 µg/mL (≈ 0.683 µM), the “MIC Streptococcus pneumoniae (ATCC 6301)” value (Streptococcus sp.; strain ATCC 6301) was 0.5 µg/mL (≈ 0.341 µM) and the “MIC Streptococcus pneumoniae (GC 1894)” value (Streptococcus sp.; strain GC 1894) was 0.12 µg/mL (≈ 0.0819 µM). For the same molecule, the “MIC Streptococcus pyogenes (GC 4563)” value (Streptococcus sp.; strain GC 4563) was 1 µg/mL (≈ 0.683 µM), the “MIC Streptococcus agalactiae (GC 4564)” value (Streptococcus sp.; strain GC 4564) was 1 µg/mL (≈ 0.683 µM) and the “MIC Streptococcus pneumoniae (GC 4565)” value (Streptococcus sp.; strain GC 4565) was 0.5 µg/mL (≈ 0.341 µM).
